Assay results taken from US6516294B1, “Nuclear receptor for 1α,25-dihydroxyvitamin D3 useful for selection of vitamin D3 ligands and a method therefor” (The Regents of the University of California, priority 1999, dated 2003).

Assays:
[1] = system: osteocalcin promoter; experiment: Transactivation of the osteocalcin promoter; format: cell-based; conditions: more potent than 1α,25(OH)2D3
Excerpt: (§1) One striking ligand-receptor structure-function relationship for 1α,25(OH)2D3 analogs relates to the chiral center at carbon 20 (see FIG. 7A) of the steroid side chain. The 20-epi analogs are 100-10,000 times more transcriptionally potent than the natural hormone 1α,25(OH)2D3, even though their affinity for the VDR is not greater. It is also known that the side chain of 20-normal versus 20-epi analogs of 1α,25(OH)2D3 is able to access different regions of three-dimensional space around the C/D ring. […] Med. Chem. Lett., 3:1799 (1998).
The seemingly benign structural change of the ligand from a 20-normal to 20-epi 1α,25(OH)2D3 results in a new conformational change in the VDR as assessed by trypsin sensitivity. This conformational change is believed to reflect an altered orientation of helix 12. Thus a VDR with a 20-epi ligand has an enhanced dimerization with RXR, resulting in increased transactivation of the osteocalcin promoter.
(§2) The problem of docking in the VDR LBD a unique analog of 1α,25(OH)2D3 that has a second side chain attached to carbon 20, such as Gemini [21-(3′-hydroxy-3-methylbutyl)-1α,25(OH)2D3], was also evaluated. Thus, Gemini has both a 20-normal and a 20-epi side chain. […] This conclusion is also consistent both with the proposal that the ligand enters the VDR LBD leading with its A-ring and with the unique trypsin sensitivity of a VDR LBD-Gemini complex.

[2] = target: T1, VDR (Homo sapiens, UniProt P11473); experiment: Binding to the VDR relative to 1α,25(OH)2D3; conditions: 1α,25(OH)2D3 as reference
T1 sequence (P11473 1-427): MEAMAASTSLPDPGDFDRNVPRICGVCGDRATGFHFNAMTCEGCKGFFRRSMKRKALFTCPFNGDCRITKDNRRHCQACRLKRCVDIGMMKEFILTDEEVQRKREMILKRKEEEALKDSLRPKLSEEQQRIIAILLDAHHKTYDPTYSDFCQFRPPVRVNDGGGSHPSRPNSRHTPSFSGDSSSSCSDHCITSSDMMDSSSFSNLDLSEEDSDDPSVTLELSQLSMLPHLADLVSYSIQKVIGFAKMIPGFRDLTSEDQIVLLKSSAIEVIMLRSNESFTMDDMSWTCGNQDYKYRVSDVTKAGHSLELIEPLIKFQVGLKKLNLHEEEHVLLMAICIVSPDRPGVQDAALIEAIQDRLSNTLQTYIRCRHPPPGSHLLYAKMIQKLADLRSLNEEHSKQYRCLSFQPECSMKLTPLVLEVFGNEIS
Excerpt: as §1, §2

SMILES: C=C1/C(=C\C=C2/CCC[C@]3(C)[C@@H](C(CCCC(C)(C)O)CCCC(C)(C)O)CC[C@@H]23)C[C@H](O)C[C@H]1O [Gemini, 21-(3′-hydroxy-3-methylbutyl)-1α,25(OH)2D3]
- potency relative to 1α,25(OH)2D3, transactivation of the osteocalcin promoter [1]: 13 -fold
- binding to the VDR relative to 1α,25(OH)2D3 [2]: 40%
